From patent publication US20200016159A1, “N3-CYCLICALLY SUBSTITUTED THIENOURACILS AND USE THEREOF” (Bayer Aktiengesellschaft, priority 2016, published 2020) come the findings set out here.

One may read the IC50 as the point on the concentration scale where inhibition reaches its midpoint.

The target in this assay is T1, human adenosine A2b receptor (Homo sapiens, UniProt P29275).
T1 sequence (P29275 1-332): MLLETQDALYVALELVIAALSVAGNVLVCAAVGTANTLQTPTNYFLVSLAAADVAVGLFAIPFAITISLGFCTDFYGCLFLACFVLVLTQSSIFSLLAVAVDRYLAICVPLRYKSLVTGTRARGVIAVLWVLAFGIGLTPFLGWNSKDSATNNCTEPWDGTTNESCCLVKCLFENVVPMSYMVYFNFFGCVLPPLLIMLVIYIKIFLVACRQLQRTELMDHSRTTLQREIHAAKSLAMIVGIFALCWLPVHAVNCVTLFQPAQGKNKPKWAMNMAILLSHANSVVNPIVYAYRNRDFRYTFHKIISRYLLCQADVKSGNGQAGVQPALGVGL
Nature of the assay: Cellular in vitro reporter gene test for A2b receptor activity (antagonism of NECA). The format is cell-based. Also on record: expressed in transfected cells; host or cells: CHO-K1 (Chinese hamster ovary) with CRE-luciferase reporter. Conditions: recombinant CHO-K1 cells, CRE-luciferase reporter, co-incubation with EC50 concentration of NECA, 3 hours. An outline of the steps: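 CHO-K1 cells expressing recombinant human A2b receptor plus a CRE-driven firefly luciferase reporter. Compounds co-incubated with NECA at its same-day EC50 concentration; luminescence read 3 hours after NECA addition. IC50 values, sometimes means of several determinations rounded to two significant figures.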

For the molecule `CCCn1c(=O)n(C2CC2)c(=O)c2c(C)c(Cn3nc[nH]c3=O)sc21` [Example 195, 3-Cyclopropyl-5-methyl-6-[(5-oxo-4,5-dihydro-1H-1,2,4-triazol-1-yl)methyl]-1-propylthieno[2,3-d]pyrimidine-2,4(1H,3H)-dione], the IC50 amounted to 120 nM.

As for `COCCn1c(=O)n(C2CC2C)c(=O)c2c(C)c(CN3CCNC3=O)sc21` (single isomer, unassigned) [Example 260, 1-(2-Methoxyethyl)-5-methyl-3-(2-methylcyclopropyl)-6-[(2-oxoimidazolidin-1-yl)methyl]thieno[2,3-d]pyrimidine-2,4(1H,3H)-dione], the IC50 was 82 nM.

`COC(=O)N=C1NCCN1Cc1sc2c(c1C)c(=O)n(C1(C)CC1)c(=O)n2CCC(F)(F)F` [Example 58, Methyl [1-{[5-methyl-3-(1-methylcyclopropyl)-2,4-dioxo-1-(3,3,3-trifluoropropyl)-1,2,3,4-tetrahydrothieno[2,3-d]pyrimidin-6-yl]methyl}imidazolidin-2-ylidene]carbamate]: the IC50 came out at 10 nM.

On to `Cc1c(CN2CCNC(=O)C2=O)sc2c1c(=O)n(C1CCC1)c(=O)n2CCC(F)(F)F` [Example 113, 3-Cyclobutyl-6-[(2,3-dioxopiperazin-1-yl)methyl]-5-methyl-1-(3,3,3-trifluoropropyl)thieno[2,3-d]pyrimidine-2,4(1H,3H)-dione], for which the IC50 is 2 nM.

On to `Cc1c(CN2CCNC2=O)sc2c1c(=O)n(C1(C)CC1)c(=O)n2C[C@H]1CCCO1` [Example 81, 5-Methyl-3-(1-methylcyclopropyl)-6-[(2-oxoimidazolidin-1-yl)methyl]-1-[(2R)-tetrahydrofuran-2-ylmethyl]thieno[2,3-d]pyrimidine-2,4(1H,3H)-dione], for which the IC50 came to 39 nM.

As for `Cc1c(Cn2cc[nH]c2=O)sc2c1c(=O)n(C1CC1C)c(=O)n2CCOC(F)(F)F` (single isomer, unassigned) [Example 272, 5-Methyl-3-(2-methylcyclopropyl)-6-[(2-oxo-2,3-dihydro-1H-imidazol-1-yl)methyl]-1-[2-(trifluoromethoxy)ethyl]thieno[2,3-d]pyrimidine-2,4(1H,3H)-dione], the IC50 is 1 nM.

`COCCn1c(=O)n(C2(C(F)(F)F)CC2)c(=O)c2c(C)c(Cn3nc[nH]c3=O)sc21` [Example 89, 1-(2-Methoxyethyl)-5-methyl-6-[(5-oxo-4,5-dihydro-1H-1,2,4-triazol-1-yl)methyl]-3-[1-(trifluoromethyl)cyclopropyl]thieno[2,3-d]pyrimidine-2,4(1H,3H)-dione]: the IC50 was 1200 nM.

`Cc1c(CN2CCNC2=S)sc2c1c(=O)n(C1CC1)c(=O)n2CCC(F)(F)F` [Example 10, 3-Cyclopropyl-5-methyl-6-[(2-thioxoimidazolidin-1-yl)methyl]-1-(3,3,3-trifluoropropyl)thieno[2,3-d]pyrimidine-2,4(1H,3H)-dione]: the IC50 came to 1.5 nM.

On to `Cc1c(CN2CCNC2=O)sc2c1c(=O)n(C1CC1)c(=O)n2CC1CC(F)(F)C1` [Example 204, 3-Cyclopropyl-1-[(3,3-difluorocyclobutyl)methyl]-5-methyl-6-[(2-oxoimidazolidin-1-yl)methyl]thieno[2,3-d]pyrimidine-2,4(1H,3H)-dione], for which the IC50 stood at 1.8 nM.

For the molecule `COCCn1c(=O)n(C2(C(F)(F)F)CC2)c(=O)c2c(C)c(CN3CCNC(=O)C3=O)sc21` [Example 88, 6-[(2,3-Dioxopiperazin-1-yl)methyl]-1-(2-methoxyethyl)-5-methyl-3-[1-(trifluoromethyl)cyclopropyl]thieno[2,3-d]pyrimidine-2,4(1H,3H)-dione], the IC50 was determined as 690 nM.

With `COCCn1c(=O)n([C@H]2C[C@H](OC)C2)c(=O)c2c(C)c(CN3CCNC3=NC(=O)OC)sc21` [Example 151, Methyl [1-{[3-(trans-3-methoxycyclobutyl)-1-(2-methoxyethyl)-5-methyl-2,4-dioxo-1,2,3,4-tetrahydrothieno[2,3-d]pyrimidin-6-yl]methyl}imidazolidin-2-ylidene]carbamate], the IC50 was 45 nM.

As for `Cc1c(Cn2nc[nH]c2=O)sc2c1c(=O)n([C@H]1C[C@@H]1C)c(=O)n2CC(F)F` [Example 320, 1-(2,2-Difluoroethyl)-5-methyl-3-[(S,2S)-2-methylcyclopropyl]-6-[(5-oxo-4,5-dihydro-1H-1,2,4-triazol-1-yl)methyl]thieno[2,3-d]pyrimidine-2,4(1H,3H)-dione], the IC50 was found to be 13 nM.

On to `COCCn1c(=O)n([C@H]2C[C@H](OC)C2)c(=O)c2c(C)c(CN3CCNC3=O)sc21` [Example 149, 3-(trans-3-Methoxycyclobutyl)-1-(2-methoxyethyl)-5-methyl-6-[(2-oxoimidazolidin-1-yl)methyl]thieno[2,3-d]pyrimidine-2,4(1H,3H)-dione], for which the IC50 came to 82 nM.

On to `Cc1c(Cn2cc[nH]c2=O)sc2c1c(=O)n(C1CC1)c(=O)n2CC1CC(F)(F)C1` [Example 205, 3-Cyclopropyl-1-[(3,3-difluorocyclobutyl)methyl]-5-methyl-6-[(2-oxo-2,3-dihydro-1H-imidazol-1-yl)methyl]thieno[2,3-d]pyrimidine-2,4(1H,3H)-dione], for which the IC50 is 7 nM.

In the case of `Cc1c(CN2CCNC2=O)sc2c1c(=O)n(C1CC1(C)C)c(=O)n2CCC(F)(F)F` (racemic) [Example 100, 3-(2,2-Dimethylcyclopropyl)-5-methyl-6-[(2-oxoimidazolidin-1-yl)methyl]-1-(3,3,3-trifluoropropyl)thieno[2,3-d]pyrimidine-2,4(1H,3H)-dione], the IC50 was determined as 12 nM.

As to `CCOCCn1c(=O)n(C2CC2)c(=O)c2c(C)c(Cn3nc[nH]c3=O)sc21` [Example 32, 3-Cyclopropyl-1-(2-ethoxyethyl)-5-methyl-6-[(5-oxo-4,5-dihydro-1H-1,2,4-triazol-1-yl)methyl]thieno[2,3-d]pyrimidine-2,4(1H,3H)-dione], the IC50 amounted to 430 nM.

With `Cc1c(Cn2nc[nH]c2=O)sc2c1c(=O)n(C1(C)CC1)c(=O)n2C[C@@H]1CCCO1` [Example 84, 5-Methyl-3-(1-methylcyclopropyl)-6-[(5-oxo-4,5-dihydro-1H-1,2,4-triazol-1-yl)methyl]-1-[(2S)-tetrahydrofuran-2-ylmethyl]thieno[2,3-d]pyrimidine-2,4(1H,3H)-dione], the IC50 was determined as 460 nM.

As to `Cc1c(CN2CCNC2=O)sc2c1c(=O)n([C@H]1C[C@@H]1C)c(=O)n2CC1CCO1` (single isomer, unassigned) [Example 284], the IC50 was 8.6 nM.

With `COCCn1c(=O)n(C2CC2)c(=O)c2c(C)c(CN3CCNC3=NC#N)sc21` [Example 25, [1-{[3-Cyclopropyl-1-(2-methoxyethyl)-5-methyl-2,4-dioxo-1,2,3,4-tetrahydrothieno[2,3-d]pyrimidin-6-yl]methyl}imidazolidin-2-ylidene]cyanamide], the IC50 was 12 nM.

For the molecule `Cc1c(CN2CCNC2=O)sc2c1c(=O)n(C1CC1C)c(=O)n2CC1CCOC1` (single isomer, unassigned) [Example 290, 5-Methyl-3-(2-methylcyclopropyl)-6-[(2-oxoimidazolidin-1-yl)methyl]-1-(tetrahydrofuran-3-ylmethyl)thieno[2,3-d]pyrimidine-2,4(1H,3H)-dione], the concentration for half-maximal inhibition (IC50) came out at 270 nM.

On to `COC(=O)N=C1NCCN1Cc1sc2c(c1C)c(=O)n(C1CC1)c(=O)n2CCC(F)(F)F` [Example 12, Methyl [1-{[3-cyclopropyl-5-methyl-2,4-dioxo-1-(3,3,3-trifluoropropyl)-1,2,3,4-tetrahydrothieno[2,3-d]pyrimidin-6-yl]methyl}imidazolidin-2-ylidene]carbamate], for which the IC50 came out at 4.2 nM.

With `Cc1c(CN2CCNC2=NC#N)sc2c1c(=O)n(C1CC(F)(F)C1)c(=O)n2CCC(F)(F)F` [Example 121, [1-{[3-(3,3-Difluorocyclobutyl)-5-methyl-2,4-dioxo-1-(3,3,3-trifluoropropyl)-1,2,3,4-tetrahydrothieno[2,3-d]pyrimidin-6-yl]methyl}imidazolidin-2-ylidene]cyanamide], the IC50 stood at 15 nM.

Turning to `COCCn1c(=O)n(C2CC(F)(F)C2)c(=O)c2c(C)c(Cn3nc[nH]c3=O)sc21` [Example 129, 3-(3,3-Difluorocyclobutyl)-1-(2-methoxyethyl)-5-methyl-6-[(5-oxo-4,5-dihydro-H-1,2,4-triazol-1-yl)methyl]thieno[2,3-d]pyrimidine-2,4(1H,3H)-dione], the 50% inhibitory concentration (IC50) turned out to be 280 nM.

Regarding `Cc1c(CN2CCNC2=O)sc2c1c(=O)n(C1(C)CC1)c(=O)n2C[C@@H]1CCCO1` [Example 82, 5-Methyl-3-(1-methylcyclopropyl)-6-[(2-oxoimidazolidin-1-yl)methyl]-1-[(2S)-tetrahydrofuran-2-ylmethyl]thieno[2,3-d]pyrimidine-2,4(1H,3H)-dione], the IC50 turned out to be 77 nM.

With `Cc1c(CN2CCNC2=NC#N)sc2c1c(=O)n(C1CCCC1)c(=O)n2CCC(F)(F)F` [Example 185, [1-{[3-Cyclopentyl-5-methyl-2,4-dioxo-1-(3,3,3-trifluoropropyl)-1,2,3,4-tetrahydrothieno[2,3-d]pyrimidin-6-yl]methyl}imidazolidin-2-ylidene]cyanamide], the IC50 worked out at 16 nM.

As to `COCCn1c(=O)n(C2CC2)c(=O)c2c(C)c(Cn3cc[nH]c3=O)sc21` [Example 28, 3-Cyclopropyl-1-(2-methoxyethyl)-5-methyl-6-[(2-oxo-2,3-dihydro-1H-imidazol-1-yl)methyl]thieno[2,3-d]pyrimidine-2,4(1H,3H)-dione], the IC50 was 19 nM.
